Results on one compound are retold here after patent US5731326A, “PDGF antagonists II” (ZymoGenetics, Inc., priority 1996, dated 1998).

Holding throughout (assay type): cell-based
In one test the test system is PDGF. Put plainly: SRE-luciferase antagonist assay, induction by PDGF. Conditions: Swiss-3T3, SWISS3T3 cells, 5 hours, approximate. An excerpt: (§1) Initial characterization of NNC92-0270 as a non-peptide PDGF antagonist was made possible through an SRE-Luciferase high through-put assay system which involves selection of substances that are able to block expression of a serum response element (SRE)-luciferase reporter gene expressed in SWISS3T3 cells. […] The degree of antagonist specificity can be determined by comparing the resultant signal for the three growth factors (PDGF, bFGF and EGF). […]
(§2) Following induction, luciferase activity was measured using a Promega luciferase assay kit (E1500; Promega Corp., Madison, Wis.) according to the assay kit protocol. […] The amount of luminescence (relative light units, RLU) was determined following a 1 second mix and a 1-3 integration of signal. Basal (uninduced) luciferase signal was subtracted from all measurements, and the luciferase signal induced by test samples was expressed as a percentage of the signal in the control. […]

A further test deals with bFGF. Put plainly: SRE-luciferase antagonist assay, induction by bFGF. Conditions: Swiss-3T3, SWISS3T3 cells, 5 hours, approximate.
From the text: as §1, §2

Another test has as its system EGF. As to the kind of experiment: SRE-luciferase antagonist assay, induction by EGF. The note with it: SWISS3T3 cells, 5 hours.
From the text: as §1, §2

In the next test the test system is PMA. As to the kind of experiment: SRE-luciferase antagonist assay, induction by PMA. Conditions: Swiss-3T3, SWISS3T3 cells, 5 hours, approximate.
The test system of test [1] is baboon smooth muscle cells. As to the kind of experiment: Wash-out study of PDGF-BB mitogenic activity on baboon smooth muscle cells. The note with it: mean +/- SD. The protocol:
NNC92-0270 was analyzed for prolonged inhibitory effect on PDGF-BB mitogenic activity on baboon smooth muscle cells in a wash-out experiment. Baboon SMCs were plated at 20,000 cells per well in a 24-well culture dish and grown for 2 days. The culture media was removed and replaced with Mito Media (Table 5) to allow the cells to become quiescent. The experiment was set up such that cells were treated with NNC92-0270 or vehicle control (0.5% DMSO) for either 24 hours prior to the addition of PDGF-BB, or sequentially with the addition of PDGF-BB. Those cells initially treated with NNC92-0270 or control vehicle for 24 hours, were washed with Mito Media to remove the test compound and then incubated with PDGF-BB (1 ng/ml) for an additional 24 hours. A second set of cells was treated with NNC92-0270 or vehicle control simultaneously with PDGF-BB for 24 hours. The cells were pulse labeled for 4 hours with [^3 H] thymidine (1 μCi/ml final) harvested with trypsin and counted in a Wallac Betaplate counter to determine CPM for [^3 H] thymidine incorporation.
Acetic acid (10 mM) was used as the PDGF-BB vehicle control and 0.5% DMSO was used as the test compound control.

One may read the IC50 as the concentration that inhibits the measured activity by half.

Consider `O=C(NN1CCCCC1)NS(=O)(=O)c1ccc(CCNC(=O)c2[nH]c3ccccc3c2OCc2ccccc2)cc1` [NNC92-0270], for which the values for the IC50 in the test on PDGF, with bFGF and with PMA were 13 µM, over 100 µM and over 100 µM, respectively. The “Induction of SRE-luciferase, EGF IC50” value in the test with EGF is “No activity”. For the same compound, the “[3H] Thymidine Incorporation (cpm)” value in test [1] (T = -24 hrs 0.5% DMSO, T = 0 hrs compound simultaneously with PDGF-BB (1 ng/ml)) was 678 +/- 68 cpm; in test [1] (T = -24 hrs compound, washed out, T = 0 hrs PDGF-BB (1 ng/ml)), 5735 +/- 474 cpm; in test [1] (T = -24 hrs compound, washed out, T = 0 hrs acetic acid (no PDGF-BB)) it was 237 +/- 36 cpm.
